Test results taken from US20060264419A1 (priority 2003, published 2006).

These compounds were tested against 5-HT2A receptors (Rattus norvegicus, UniProt P14842) (assay: in-vitro affinity to 5-HT2A receptors, displacement of [3H]ketanserine (Example A1)). Settings: read-out: HT2A IC50.
Format: binding
Source text: The 5-HT2A receptors are exposed both to [^3H]ketanserine (a substance which is known for its affinity to the receptor) and also to the test compound. The decrease in the affinity of [^3H]ketanserine to the receptor is an indication of the affinity of the test substance to the 5-HT2A receptor.

Chain of 5-HT2A receptors (P14842 whole entry): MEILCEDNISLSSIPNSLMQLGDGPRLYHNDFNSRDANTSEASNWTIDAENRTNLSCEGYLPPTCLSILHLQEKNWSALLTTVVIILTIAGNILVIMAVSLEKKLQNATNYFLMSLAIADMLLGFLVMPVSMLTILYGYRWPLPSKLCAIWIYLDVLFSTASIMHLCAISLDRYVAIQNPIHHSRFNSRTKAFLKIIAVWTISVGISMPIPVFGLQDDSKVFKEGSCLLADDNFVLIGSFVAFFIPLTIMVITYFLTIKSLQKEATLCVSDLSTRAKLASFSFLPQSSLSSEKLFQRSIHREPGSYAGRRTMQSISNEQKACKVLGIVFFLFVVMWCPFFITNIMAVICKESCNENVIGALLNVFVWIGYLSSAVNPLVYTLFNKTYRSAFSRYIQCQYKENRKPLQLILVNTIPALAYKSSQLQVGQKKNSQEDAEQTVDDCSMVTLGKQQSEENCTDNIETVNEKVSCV

IC50 [nM]	Compound
370	Fc1ccc(F)c(-c2ccc(-n3ncc(CNCC4CCCO4)c3-c3ccccc3F)cc2)c1 (centres unmarked) [Example 1044, [1-(2′,5′-Difluorobiphenyl-4-yl)-5-(2-fluoro-phenyl)-1H-pyrazol-4-ylmethyl](tetrahydro-furan-2-ylmethyl)amine]
170	Fc1ccccc1-c1c(CNCCc2c[nH]cn2)cnn1-c1ccc(-c2ccccc2)cc1 [Example 1002, [1-Biphenyl-4-yl-5-(2-fluorophenyl)-1H-pyrazol-4-ylmethyl]-[2-(1H-imidazol-4-yl)-ethyl]amine]
48	Fc1ccccc1-c1c(CN2CCCCCC2)cnn1-c1ccc(-c2ccccc2)cc1 [Example 948, 1-[1-Biphenyl-4-yl-5-(2-fluorophenyl)-1H-pyrazol-4-ylmethyl]azepan]
280	N#CCNCc1cnn(-c2ccc(-c3ccccc3)cc2)c1-c1ccccc1F [Example 1034, {[1-Biphenyl-4-yl-5-(2-fluorophenyl)-1H-pyrazol-4-ylmethyl]amino}acetonitrile]
320	Fc1ccccc1-c1c(CNC2C3CNCC32)cnn1-c1ccc(-c2ccccc2)cc1 (centres unmarked) [Example 1041, (3-Azabicyclo[3.1.0]hex-6-yl)-[1-biphenyl-4-yl-5-(2-fluorophenyl)-1H-pyrazol-4-ylmethyl]-amine]
310	Fc1ccccc1-c1c(CNC2CCN(Cc3ccccc3)C2)cnn1-c1ccc(-c2ccccc2)cc1 (centres unmarked) [Example 1036, (1-Benzylpyrrolidin-3-yl)-[1-biphenyl-4-yl-5-(2-fluorophenyl)-1H-pyrazol-4-ylmethyl]amine]
390	CN1CCN(Cc2cnn(-c3cccc(-c4ccc(Cl)cc4)c3)c2-c2ccccc2F)CC1 [Example 1049, 1-[1-(4′-Chlorobiphenyl-3-yl)-5-(2-fluoro-phenyl)-1H-pyrazol-4-ylmethyl]-4-methyl-piperazine]
53	Fc1ccc(CCN2CCN(Cc3cnn(-c4ccccn4)c3-c3ccccc3F)CC2)cc1 [Example 950, 1-[2-(4-Fluorophenyl)ethyl]-4-[5-(2-fluoro-phenyl)-1-pyridin-2-yl-1H-pyrazol-4-ylmethyl]-piperazine]
35	CN(C)C1CCN(Cc2cnn(-c3ccc(-c4ccccc4)cc3)c2-c2ccccc2F)C1 (centres unmarked) [Example 936, {1-[1-Biphenyl-4-yl-5-(2-fluoro-phenyl)-1H-pyrazol-4-ylmethyl]pyrrolidin-3-yl}dimethyl-amine]
320	COc1ccc(-c2c(CN3CCN(C(C)C)CC3)cnn2-c2ccc(-c3ccc(F)cc3)cc2)cc1 [Example 1040, 1-[1-(4′-Fluorobiphenyl-4-yl)-5-(4-methoxy-phenyl)-1H-pyrazol-4-ylmethyl]-4-isopropyl-piperazine]
400	CN1CCN(Cc2cnn(-c3ccc(-c4ccc(F)cc4)cc3)c2-c2cc(Cl)cc(Cl)c2)CC1 [Example 1052, 1-[5-(3,5-Dichlorophenyl)-1-(4′-fluoro-biphenyl-4-yl)-1H-pyrazol-4-ylmethyl]-4-methyl-piperazine]
100	O=C(CNCc1cnn(-c2ccc(-c3ccccc3)cc2)c1-c1ccccc1F)Nc1ccc([N+](=O)[O-])cc1 [Example 980, 2-{[1-Biphenyl-4-yl-5-(2-fluorophenyl)-1H-pyrazol-4-ylmethyl]amino}-N-(4-nitrophenyl)-acetamide]
23	Fc1ccccc1-c1c(CCCN2CCOCC2)cnn1-c1ccc(-c2ccccc2)cc1 [Example 917, 4-{3-[1-Biphenyl-4-yl-5-(2-fluoro-phenyl)-1H-pyrazol-4-yl]propyl}morpholine]
200	CN(C)C(=O)CNCc1cnn(-c2ccc(-c3ccccc3)cc2)c1-c1ccccc1F [Example 1010, 2-{[1-Biphenyl-4-yl-5-(2-fluorophenyl)-1H-pyrazol-4-ylmethyl]amino}-N,N-dimethyl-acetamide]
380	OCc1cnn(-c2ccc(-c3ccc(F)cc3)cc2)c1-c1ccccc1Cl [Example 1048, [5-(2-Chlorophenyl)-1-(4′-fluoro-biphenyl-4-yl)-1H-pyrazol-4-yl]methanol]
230	Cc1ccccc1-c1ccc(-n2ncc(CN3CCN(C)CC3)c2-c2ccccc2F)cc1 [Example 1020, 1-[5-(2-Fluorophenyl)-1-(2′-methyl-biphenyl-4-yl)-1H-pyrazol-4-ylmethyl]-4-methylpiperazine]
85	CN1CCN(Cc2cnn(-c3ccc(-c4ccc(F)cc4)cc3)c2-c2cnccn2)CC1 [Example 972, 2-[2-(4′-Fluorobiphenyl-4-yl)-4-(4-methyl-piperazin-1-ylmethyl)-2H-pyrazol-3-yl]-pyrazine]

Compound	IC50 [nM]
1-(Biphenyl-4-yltrifluoromethyl-1H-pyrazol-4-ylmethyl)-4-methylpiperazine [Example 1026]	260

Same assay, conditions: target not given; description names affinity to 5-HT2A receptors; read-out: IC50

IC50 [nM]	Compound
820	CN1CCN(Cc2cnn(-c3ccc(-c4ccccc4F)cc3)c2-c2ccccc2)CC1 [(96), 1-[1-(2′-Fluorobiphenyl-4-yl)-5-phenyl-1H-pyrazol-4-ylmethyl]-4-methylpiperazine]
510	O=C1NCCCCC1NCc1cnn(-c2ccc(-c3ccccc3)cc2)c1-c1ccccc1F (centres unmarked) [(163), 3-{[1-Biphenyl-4-yl-5-(2-fluorophenyl)-1H-pyrazol-4-ylmethyl]-amino}azepan-2-one]
230	CCNC(=O)CN1CCN(Cc2cnn(-c3ccc(-c4ccccc4)cc3)c2-c2ccccc2F)CC1 [(139), 2-{4-[1-Biphenyl-4-yl-5-(2-fluorophenyl)-1H-pyrazol-4-ylmethyl]piperazin-1-yl}-N-ethylacetamide]
590	Cc1nn(C)c(C)c1NCc1cnn(-c2ccc(-c3ccccc3)cc2)c1-c1ccccc1F [(187), [1-Biphenyl-4-yl-5-(2-fluorophenyl)-1H-pyrazol-4-ylmethyl]-(1,3,5-trimethyl-1H-pyrazol-4-yl)amine]
220	NC(=O)C1CCCN1Cc1cnn(-c2ccc(-c3ccccc3F)nc2)c1-c1ccccc1F (centres unmarked) [(145), 1-{5-(2-Fluorophenyl)-1-[6-(2-fluorophenyl)pyridin-3-yl]-1H-pyrazol-4-ylmethyl}pyrrolidine-2-carboxamide]
48	Fc1ccccc1-c1c(CN2CCCCCC2)cnn1-c1ccc(-c2ccccc2)cc1 [(31), 1-[1-Biphenyl-4-yl-5-(2-fluorophenyl)-1H-pyrazol-4-ylmethyl]-azepan]
1300	C=CCC(O)c1cnn(-c2ccc(-c3ccccc3)cc2)c1-c1ccccc1F (centres unmarked) [(150), 1-[1-Biphenyl-4-yl-5-(2-fluorophenyl)-1H-pyrazol-4-yl]-but-3-en-1-ol]
1200	Fc1ccccc1-c1c(C=NNC2=NCCN2)cnn1-c1ccc(-c2ccccc2)cc1 [(166), N-[1-Biphenyl-4-yl-5-(2-fluorophenyl)-1H-pyrazol-4-yl-methylene]-N′-(4,5-dihydro-1H-imidazol-2-yl)hydrazine]
170	Fc1ccccc1-c1c(CN2CCN(Cc3ccccc3)CC2)cnn1-c1ccc(-c2ccccc2)cc1 [(24), 1-Benzyl-4-[1-biphenyl-4-yl-5-(2-fluorophenyl)-1H-pyrazol-4-ylmethyl]piperazine]
47	Fc1ccccc1-c1c(CN2CCC2)cnn1-c1ccc(-c2ccccc2)cc1 [(160), 4-Azetidin-1-ylmethyl-1-biphenyl-4-yl-5-(2-fluorophenyl)-1H-pyrazole]
920	CN(CC(N)=O)Cc1cnn(-c2ccc(-c3ccccc3)cc2)c1-c1ccccc1F [(132), 2-{[1-Biphenyl-4-yl-5-(2-fluorophenyl)-1H-pyrazol-4-ylmethyl]-methylamino}acetamide]
1300	Nc1ncc(NCc2cnn(-c3ccc(-c4ccc(F)cc4)nc3)c2-c2ccccc2F)cn1 [(197)]
210	COC(=O)CCNCc1cnn(-c2ccc(-c3ccccc3)cc2)c1-c1ccccc1F [(112), Methyl 3-{[1-biphenyl-4-yl-5-(2-fluorophenyl)-1H-pyrazol-4-ylmethyl]amino}propionate]
300	OCc1cnn(-c2ccc(-c3ccc(F)cc3)nc2)c1-c1ccccc1F [(119), {5-(2-Fluorophenyl)-1-[6-(4-fluorophenyl)pyridin-3-yl]-1H-pyrazol-4-yl}methanol]
130	CC1CCN(Cc2cnn(-c3ccc(-c4ccccc4)cc3)c2-c2ccccc2F)CC1 [(49), 1-[1-Biphenyl-4-yl-5-(2-fluorophenyl)-1H-pyrazol-4-ylmethyl]-4-methylpiperidine]
200	c1ccc(-c2ccc(-n3ncc(CN4CCNCC4)c3-c3ccccn3)cc2)cc1 [(60), 1-(1-Biphenyl-4-yl-5-pyridin-2-yl-1H-pyrazol-4-ylmethyl)-piperazine]
780	CC(C)(C)OC(=O)N1CCN(Cc2cnn(-c3ccc(-c4ccccc4)cc3)c2-c2ccccn2)CC1 [(59), tert-Butyl 4-(1-biphenyl-4-yl-5-pyridin-2-yl-1H-pyrazol-4-ylmethyl)piperazine-1-carboxylate]
690	CCOC(=O)CN1CCN(Cc2cnn(-c3ccc(-c4ccccc4)cc3)c2-c2ccccc2F)CC1 [(73), Ethyl {4-[1-biphenyl-4-yl-5-(2-fluorophenyl)-1H-pyrazol-4-ylmethyl]piperazin-1-yl}acetate]

Compound	IC50 [nM]
CCN1CCN(Cc2cnn(-c3ccc(-c4ccccc4)cc3)c2-c2ccccc2F)CC1 [(90), 1-[1-Biphenyl-4-yl-5-(2-fluorophenyl)-1H-pyrazol-4-ylmethyl]-4-ethylpiperazine]	28
NCc1cnn(-c2ccc(-c3ccccc3)cc2)c1-c1ccccc1 [(165), C-(1-Biphenyl-4-yl-5-phenyl-1H-pyrazol-4-yl)methylamine]	21
CN(C)Cc1cnn(-c2ccc(-c3ccccc3)cc2)c1-c1ccccc1F [(34), [1-Biphenyl-4-yl-5-(2-fluorophenyl)-1H-pyrazol-4-ylmethyl]-dimethylamine]	21
Fc1ccccc1-c1c(CCN2CCOCC2)cnn1-c1ccc(-c2ccccc2)cc1 [(42), 4-{2-[1-Biphenyl-4-yl-5-(2-fluorophenyl)-1H-pyrazol-4-yl]ethyl}morpholine]	12
Cn1cccc1CNCc1cnn(-c2ccc(-c3ccccc3)cc2)c1-c1ccccc1 [(171), (1-Biphenyl-4-yl-5-phenyl-1H-pyrazol-4-ylmethyl)-(1-methyl-1H-pyrrol-2-ylmethyl)amine]	26
